As usually defined, the IC50 is the concentration that inhibits the measured activity by half. Low readings indicate greater potency, high ones weaker potency.

This note sets out measurements from ChEMBL document CHEMBL1821711, “Design and synthesis of novel arylpiperazine derivatives containing the imidazole core targeting 5-HT(2A) receptor and 5-HT transporter” (J Med Chem, 2011).

This experiment deals with T1, 5-hydroxytryptamine receptor 2C (Homo sapiens, UniProt P28335).
T1 sequence (P28335 whole entry): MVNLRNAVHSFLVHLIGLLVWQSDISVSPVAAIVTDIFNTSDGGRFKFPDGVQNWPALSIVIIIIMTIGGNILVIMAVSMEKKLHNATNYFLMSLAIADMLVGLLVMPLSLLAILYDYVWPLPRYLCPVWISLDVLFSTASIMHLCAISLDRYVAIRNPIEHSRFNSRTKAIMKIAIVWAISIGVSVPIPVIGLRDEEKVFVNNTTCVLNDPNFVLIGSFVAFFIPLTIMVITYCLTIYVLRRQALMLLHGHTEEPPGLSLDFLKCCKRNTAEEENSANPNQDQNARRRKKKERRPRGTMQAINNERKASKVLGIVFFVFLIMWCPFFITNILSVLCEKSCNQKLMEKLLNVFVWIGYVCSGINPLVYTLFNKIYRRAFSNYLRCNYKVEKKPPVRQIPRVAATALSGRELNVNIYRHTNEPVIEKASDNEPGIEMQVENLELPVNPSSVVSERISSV
Description: biochemical. Format: cell-based, CHO-K1.
Description: Displacement of [3H]mesulergine from human recombinant 5-HT2C receptor expressed in CHO-K1 cells

`Cc1cccc(N2CCN(CCCNC(=O)c3nc(C)n(-c4ccc(Cl)cc4)c3C)CC2)c1C` came in with an IC50 of 233 nM.
Next, `CCCc1nc(C(=O)NCCCN2CCN(c3cccc(Cl)c3C)CC2)c(C)n1-c1ccc2c(c1)OCCO2`: 61 nM; `Cc1nc(C(=O)NCCCN2CCN(c3cccc(Cl)c3Cl)CC2)c(C)n1C1CCCC1`: 139 nM; `Cc1c(Cl)cccc1N1CCN(CC(O)CNC(=O)c2nc(C)n(-c3ccc4c(c3)OCCO4)c2C)CC1` (stereo not given): 663 nM.
Next, `Cc1c(C(=O)NCCCN2CCN(c3cccc(Cl)c3Cl)CC2)nc(-c2ccccc2)n1-c1ccccc1F`: 185 nM.
For `Cc1c(Cl)cccc1N1CCN(CCCNC(=O)c2nc(C)n(-c3ccc(F)cc3)c2C)CC1` the value was 113 nM; for `CCCc1nc(C(=O)NCCCN2CCN(c3cccc(C)c3C)CC2)c(C)n1-c1ccccc1OC`, 283 nM.
`CCCc1nc(C(=O)NCC(O)CN2CCN(c3cccc(C)c3C)CC2)c(C)n1-c1ccc(F)cc1` (stereo not given) had a half-maximal inhibitory concentration (IC50) of 1000 nM.
`Cc1nc(C(=O)NCCCN2CCN(c3cccc(Cl)c3Cl)CC2)c(C)n1-c1ccccc1C(F)(F)F` gave an IC50 of 155 nM.
`COc1ccc(-n2c(-c3ccccc3)nc(C(=O)NCCCN3CCN(c4cccc(C)c4C)CC3)c2C)cc1` gave an IC50 of 96 nM.
Next, `CCCc1nc(C(=O)NCCCN2CCN(c3cccc(C)c3C)CC2)c(C)n1-c1ccccc1Cl`: 235 nM.
On to `CCCc1nc(C(=O)NCC(O)CN2CCN(c3cccc(C)c3C)CC2)c(C)n1-c1ccc2c(c1)OCCO2` (stereo not given), for which the IC50 was determined as 593 nM.
For `Cc1c(Cl)cccc1N1CCN(CC(O)CNC(=O)c2nc(C)n(-c3cccc(Cl)c3)c2C)CC1` (stereo not given) the value was 556 nM.
Next, `CCCc1nc(C(=O)NCCCN2CCN(c3cccc(Cl)c3Cl)CC2)c(C)n1-c1ccc2c(c1)OCCO2`: 297 nM; `CCCc1nc(C(=O)NCCCN2CCN(c3cccc(Cl)c3Cl)CC2)c(C)n1-c1ccccc1OC`: 383 nM; `CCCc1nc(C(=O)NCCCN2CCN(c3cccc(Cl)c3C)CC2)c(C)n1-c1ccccc1OC`: 473 nM.
Next, `CCCc1nc(C(=O)NCC(O)CN2CCN(c3cccc(C)c3C)CC2)c(C)n1-c1ccc(Cl)cc1` (stereo not given): 661 nM.
In turn, `COc1ccc(-n2c(-c3ccccc3)nc(C(=O)NCC(O)CN3CCN(c4cccc(Cl)c4C)CC3)c2C)cc1` (stereo not given) displayed an IC50 of 526 nM.
Next, `Cc1c(C(=O)NCC(O)CN2CCN(c3cccc(Cl)c3Cl)CC2)nc(-c2ccccc2)n1-c1ccc(F)cc1` (stereo not given): 64 nM; `Cc1c(Cl)cccc1N1CCN(CCCNC(=O)c2nc(-c3ccccc3)n(-c3ccc(F)cc3)c2C)CC1`: 2240 nM; `COc1ccc(-n2c(C)nc(C(=O)NCC(O)CN3CCN(c4cccc(Cl)c4C)CC3)c2C)cc1` (stereo not given): 323 nM.
Take `CCCc1nc(C(=O)NCCCN2CCN(c3cccc(C)c3C)CC2)c(C)n1-c1ccccc1`: the IC50 came to 286 nM.
For the compound `CCCc1nc(C(=O)NCCCN2CCN(c3cccc(Cl)c3Cl)CC2)c(C)n1-c1ccccc1F`, the IC50 was 189 nM.
In turn, `Cc1nc(C(=O)NCC(O)CN2CCN(c3cccc(Cl)c3Cl)CC2)c(C)n1-c1ccccc1F` (stereo not given) had an IC50 of 459 nM.
In turn, `Cc1cccc(N2CCN(CCCNC(=O)c3nc(-c4ccccc4)n(-c4ccc5c(c4)OCCO5)c3C)CC2)c1C` had a 50% inhibitory concentration (IC50) of 68 nM.
For the compound `Cc1cccc(N2CCN(CCCNC(=O)c3nc(-c4ccccc4)n(-c4ccccc4)c3C)CC2)c1C`, half-maximal inhibition (IC50) was put at 193 nM.
`Cc1cccc(N2CCN(CC(O)CNC(=O)c3nc(C)n(-c4ccc5c(c4)OCCO5)c3C)CC2)c1C` (stereo not given): the IC50 turned out to be 610 nM.
Next, `CCCc1nc(C(=O)NCCCN2CCN(c3cccc(Cl)c3C)CC2)c(C)n1-c1ccc(OC)cc1`: 204 nM.
`Cc1cccc(N2CCN(CCCNC(=O)c3cn(-c4ccccc4)c(-c4ccccc4)n3)CC2)c1C`: the IC50 came out at 116 nM.
Next, `Cc1cccc(N2CCN(CC(O)CNC(=O)c3nc(-c4ccccc4)n(-c4ccc(F)cc4)c3C)CC2)c1C` (stereo not given): 185 nM.
`COc1ccc(-n2c(-c3ccccc3)nc(C(=O)NCC(O)CN3CCN(c4cccc(C)c4C)CC3)c2C)cc1` (stereo not given): the half-maximal inhibitory concentration (IC50) was 609 nM.
Next, `CCCc1nc(C(=O)NCCCN2CCN(c3cccc(C)c3C)CC2)c(C)n1-c1ccc(F)cc1`: 68 nM; `CCCc1nc(C(=O)NCCCN2CCN(c3cccc(Cl)c3C)CC2)cn1-c1ccc(Cl)cc1`: 367 nM; `COc1ccc(-n2c(-c3ccccc3)nc(C(=O)NCCCN3CCN(c4cccc(Cl)c4Cl)CC3)c2C)cc1`: 64 nM.
On to `Cc1c(Cl)cccc1N1CCN(CC(O)CNC(=O)c2nc(C)n(C3CCCC3)c2C)CC1` (stereo not given), for which the midpoint of inhibition, the IC50, lay at 166 nM.
For `COc1ccc(-n2c(C)nc(C(=O)NCC(O)CN3CCN(c4cccc(C)c4C)CC3)c2C)cc1` (stereo not given) the value was 546 nM.
`CCCn1c(C)nc(C(=O)NCCCN2CCN(c3cccc(Cl)c3Cl)CC2)c1C`: the half-inhibitory concentration (IC50) was found to be 198 nM. Against the preceding compound, the IC50 is about 2.8-fold lower.
For `Cc1c(Cl)cccc1N1CCN(CC(O)CNC(=O)c2nc(-c3ccccc3)n(-c3ccccc3)c2C)CC1` (stereo not given) the value was 739 nM.
In turn, `Cc1cccc(N2CCN(CCCNC(=O)c3nc(-c4ccccc4)n(-c4ccc(F)cc4)c3C)CC2)c1C` returned an IC50 of 64.1 nM.
For `COc1ccc(-n2cc(C(=O)NCCCN3CCN(c4cccc(C)c4C)CC3)nc2-c2ccccc2)cc1`, half-maximal inhibition (IC50) required 104 nM.
For `Cc1c(Cl)cccc1N1CCN(CCCNC(=O)c2nc(C)n(-c3ccc4c(c3)OCCO4)c2C)CC1` the value was 106 nM.
The compound `CCCc1nc(C(=O)NCC(O)CN2CCN(c3cccc(Cl)c3Cl)CC2)c(C)n1-c1ccc(F)cc1` (stereo not given) had an IC50 of 1510 nM. Compared with the last compound, the IC50 is about 14-fold higher.
Next, `COc1ccc(-n2c(C)nc(C(=O)NCCCN3CCN(c4cccc(C)c4C)CC3)c2C)cc1`: 191 nM.
For `CCCn1c(C)nc(C(=O)NCC(O)CN2CCN(c3cccc(C)c3C)CC2)c1C` (stereo not given) the value was greater than 10000 nM; for `CCCc1nc(C(=O)NCCCN2CCN(c3cccc(C)c3C)CC2)cn1-c1ccc(F)cc1`, 238 nM; for `CCCc1nc(C(=O)NCCCN2CCN(c3cccc(Cl)c3C)CC2)c(C)n1-c1ccc(F)cc1`, 229 nM.
Next, `COc1ccc(-n2c(-c3ccccc3)nc(C(=O)NCCCN3CCN(c4cccc(Cl)c4C)CC3)c2C)cc1`: 77 nM; `Cc1c(Cl)cccc1N1CCN(CCCNC(=O)c2nc(C)n(C3CCCC3)c2C)CC1`: 4370 nM; `CCCc1nc(C(=O)NCCCN2CCN(c3cccc(Cl)c3C)CC2)c(C)n1-c1ccccc1`: 604 nM.
For `Cc1c(Cl)cccc1N1CCN(CCCNC(=O)c2nc(C)n(CC(C)C)c2C)CC1`, the IC50 stood at 2220 nM.
